Assay results as given in patent US20230212191A1, “SPIRO-SULFONIMIDAMIDE DERIVATIVES AS INHIBITORS OF MYELOID CELL LEUKEMIA-1 (MCL-1) PROTEIN” (PRELUDE THERAPEUTICS, INCORPORATED, priority 2020, published 2023).

Legend:
[1] = target: T1, MCL-1 (Homo sapiens, UniProt Q07820); test: Cell free Mcl-1:Bim affinity assay (fluorescence polarization competition); format: binding; conditions: 15 nM MCL-1, 5 nM FITC-Bim tracer, 1 hour at room temperature; Ki calc. from IC50 by Nikolovska-Coleska's equation; read-out: BIM_ Ki
T1 construct: purchased BPS Bioscience
Method: Cell Free Mcl-1:Bim Affinity Assay (Mcl-1 Bim)
The binding affinity of each compound was measured via a fluorescence polarization competition assay, in which the compound competes for the same binding site with the ligand, and thus leads to a dose-dependent anisotropy reduction. The tracer ligand utilized was a fluorescein isothiocyanate labelled peptide (FITC-[…]) derived from Bim (GenScript).
The assay was carried out in black half-area 96-well NBS plate (Corning), containing 15 nM of MCL-1 (BPS Bioscience), 5 nM of FITC-Bim and 3-fold serial diluted test compounds in a total volume of 50 μL of assay buffer (20 mM HEPES, 50 mM NaCl, 0.002% Tween 20, 1 mM TCEP, and 1% DMSO). The reaction plate was incubated for 1 hour at room temperature. The change of anisotropy is measured with an Envision multimode plate reader (PerkinElmer) at emission wavelength 535 nm. Fluorescence polarization was calc. in mP unit and the percentage inhibition was calc. by % inhibition=100×(mPDMSO−mP)/(mPDMSO−mPPC), in which mPDMSO is the DMSO control, and mPPC is the positive control. IC50 values were determined from a 10-point dose response curve by fitting the percent inhibition against compound concentration using the GraphPad Prism software. The inhibition constant Ki was subsequently calc. according to the Nikolovska-Coleska's equation (Anal. Biochem., 2004, 332, 261),
where [I]50 is the concentration of the free inhibitor at 50% inhibition, [L]50 is the concentration of the free labeled ligand at 50% inhibition, [P]0 is the concentration of the free protein at 0% inhibition, and Kd is the dissociation constant of the protein-ligand complex.

[2] = test system: H929 cells; test: Cell viability assay (H929 10 FBS); format: cell-based; conditions: Homo sapiens, NCI-H929, 24 h, CellTiter-Glo or ATPlite, read-out: H929_10FBS IC50
Method: Cell Viability Assay (H929 10 FBS)
Dispense 10 μL aliquot of prepared H929 cells (1:1 ratio of cells:Trypan Blue (#1450013, Bio-Rad)) onto cell counting slide (#145-0011, Bio-Rad) and obtain cell density and cell viability using cell counter (TC20, Bio-Rad). Remove appropriate volume of resuspended cells from culture flask to accommodate 4000 cells/well @ 10 μL/well. Transfer H929 cells to 50 mL conical (#430290, Corning). Spin down at 1000 rpm for 5 min using tabletop centrifuge (SPINCHRON 15, Beckman). Discard supernatant and resuspend cell pellet in modified RPMI 1640 (#10-040-CV, Corning) cell culture media containing 10% FBS (F2422-500 ML, Sigma), sodium pyruvate (100 mM) (#25-000-CL, Corning), HEPES buffer (1 M) (#25-060-CL, Corning) and glucose (200 g/L) (A24940-01, Gibco) to a cell density of 400,000 cells/mL. Dispense 10 μL of resuspended H929 cells per well in 384-well small volume TC treated plate (#784080, Greiner Bio-one) using standard cassette (#50950372, Thermo Scientific) on Multi-drop Combi (#5840310, Thermo Scientific) in laminar flow cabinet. Dispense compounds onto plates using digital liquid dispenser (D300E, Tecan). Incubate plates in humidified tissue culture incubator @ 37° C. for 24 hours. Add 10 μL of prepared CellTiTer-Glo® detection buffer (G7570, Promega) or ATPlite 1Step detection reagent (#6016731, Perkin Elmer) to each well of 384-well plate using small tube cassette (#24073295, Thermo Scientific) on Combi multi drop, incubate @ RT for 30-60 min. Read plates with microplate reader (PheraStar, BMG Labtech) using 384 well luminescence mode.

T1 sequence (Q07820 whole entry): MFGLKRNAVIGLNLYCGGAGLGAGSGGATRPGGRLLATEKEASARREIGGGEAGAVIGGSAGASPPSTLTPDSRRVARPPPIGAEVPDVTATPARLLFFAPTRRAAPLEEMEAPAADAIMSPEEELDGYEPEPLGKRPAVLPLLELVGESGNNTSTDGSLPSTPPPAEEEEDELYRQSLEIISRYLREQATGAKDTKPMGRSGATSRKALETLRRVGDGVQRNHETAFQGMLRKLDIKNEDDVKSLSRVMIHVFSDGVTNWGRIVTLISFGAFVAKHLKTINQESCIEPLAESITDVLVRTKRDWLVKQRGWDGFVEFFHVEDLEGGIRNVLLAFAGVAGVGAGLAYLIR

Compound: COc1nn(C)cc1C(=O)NS1(=O)=NC(=O)C(C)(C)OC/C=C/[C@H](OC)[C@@H]2CC[C@H]2CN2C[C@@]3(CCCc4cc(Cl)ccc43)COc3ccc1cc32 (stereo partly drawn) [Example 16, N-[(3R,6R,7S,8E,22S)-7′-Chloro-7-methoxy-12,12-dimethyl-13,15-dioxospiro[11,20-dioxa-15-thia-1,14-diazatetracyclo[14.7.2.03,6.019,24]pentacosa-8,14,16,18,24-pentaene-22,4′-2,3-dihydro-1H-naphthalene]-15-yl]-3-methoxy-1-methylpyrazole-4-carboxamide]
- Ki [1]: < 1 nM
- IC50 [2]: < 100 nM

Compound: CO[C@H]1/C=C/COC(C)(C)C(=O)N=S(=O)(NC(=O)c2cn(C)nc2C)c2ccc3c(c2)N(C[C@@H]2CC[C@H]21)C[C@@]1(CCCc2cc(Cl)ccc21)CO3 (stereo partly drawn) [Example 17, N-[(3R,6R,7S,8E,22S)-7′-chloro-7-methoxy-12,12-dimethyl-13,15-dioxospiro[11,20-dioxa-15-thia-1,14-diazatetracyclo[14.7.2.03,6.019,24]pentacosa-8,14,16,18,24-pentaene-22,4′-2,3-dihydro-1H-naphthalene]-15-yl]-1,3-dimethylpyrazole-4-carboxamide]
- Ki [1]: < 1 nM
- IC50 [2]: < 100 nM

Compound: CCNC(=O)NS1(=O)=NC(=O)C(C)(C)OC/C=C/[C@H](OC)[C@@H]2CC[C@H]2CN2C[C@@]3(CCCc4cc(Cl)ccc43)COc3ccc1cc32 (stereo partly drawn) [Example 20, 1-[(3R,6R,7S,8E,22S)-7′-Chloro-7-methoxy-12,12-dimethyl-13,15-dioxospiro[11,20-dioxa-15-thia-1,14-diazatetracyclo[14.7.2.03,6.019,24]pentacosa-8,14,16,18,24-pentaene-22,4′-2,3-dihydro-1H-naphthalene]-15-yl]-3-ethylurea]
- Ki [1]: < 1 nM
- IC50 [2]: < 100 nM

Compound: CO[C@H]1/C=C/COC(C)(C)C(=O)N=S(=O)(NC(=O)N2CC(N(C)C)C2)c2ccc3c(c2)N(C[C@@H]2CC[C@H]21)C[C@@]1(CCCc2cc(Cl)ccc21)CO3 (stereo partly drawn) [Example 33, N-[(3R,6R,7S,8E,22S)-7′-Chloro-7-methoxy-12,12-dimethyl-13,15-dioxospiro[11,20-dioxa-15-thia-1,14-diazatetracyclo[14.7.2.03,6.019,24]pentacosa-8,14,16,18,24-pentaene-22,4′-2,3-dihydro-1H-naphthalene]-15-yl]-3-(dimethylamino)azetidine-1-carboxamide]
- Ki [1]: < 1 nM
- IC50 [2]: < 100 nM
